The values that follow come from PMC3462775 (PLoS ONE, 2012).

Values after ≈ are worked out from the molar mass of the structure shown. Bridge positions count the residues as written; N and C are the ends. Square brackets hold non-standard residues; d marks the D form. Peptide text beside a SMILES is read from it. I, II: the chains in the order shown. βAla = NCCC(=O)O

Test [1] has as its system S. aureus USA300. Nature of the test: In vivo anti-MRSA activity, lethal i.p. infection of mice. The following applies: Balb-c mice (20 g), groups of 5, i.p. LD100 (1×10^6) S. aureus USA 300 in 7% mucin, single i.p. peptide 25 mg/kg 30 min later; for survival: after 7 days. As for the experimental part: The smallest number of bacteria causing 100% lethal infection (LD100) after intra-peritoneal (i.p.) injection was 1×10^6 in the presence of 7% mucin. An LD100 killed mice within 20 hours. Mice were infected with the LD100 of bacteria and treated i.p. with the peptides 30 minutes later.
Figure 4 In vivo antibacterial activity of tetrabranched M33-L and M33-D peptides. Balb-c mice (20 g) were injected i.p. with a lethal amount of S. aureus USA300 cells. Dashed line (Ctr), injection with bacteria and no peptides; dotted line, injection with bacteria and a single injection of M33-L peptide (25 mg/kg) 30 min later; continuous line, injection with bacteria and a single injection of M33-D peptide (25 mg/kg) 30 min later.
Animal procedures were approved by the Ethical Committee of the Azienda Ospedaliera Universitaria Senese on November 18, 2010. Balb-c mice (20 g) were infected i.p. with lethal amounts of bacteria (see results) mixed in 500 µl PBS +7% mucin (mucin from porcine stomach, type II, Sigma-Aldrich). Bacteria were cultured overnight, centrifuged, mixed in sterile PBS, and measured by spectrophotometer. Possible further dilutions in PBS were sometimes necessary to obtain the right amount of bacteria. Groups consisted of 5 animals. Moribund animals were killed humanely to avoid unnecessary distress. Surviving mice were monitored for 7 days. Thirty minutes after bacterial administration, peptides were inoculated i.p. with 0.5 ml PBS solution containing the indicated amount of peptide (see Results). Control animals received only PBS. P values were calculated using GraphPad Prism software.

Test [2] has as its system S. aureus ATCC 25923 biofilm. In kind it is cell-based, Staphylococcus aureus. The settings on record: ATCC 25923, 2 h. As for the experimental part: (§1) Biofilm formation was performed by adapting the procedure described in [39] using the Calgary Biofilm Device (Innovotech, Innovotech Inc. Edmonton, Canada). Briefly, 96-well plates containing the bacterial inoculum were sealed with lids bearing 96 pegs on which the biofilm could build up. The plates were placed in an orbital incubator at 35°C (for P. aeruginosa and E. coli) or 37°C (for S. aureus) for 20 h under agitation at 125 rpm. Once biofilms formed, the lids were removed from the plates and the pegs were rinsed twice with phosphate buffered saline (PBS) to remove planktonic cells. The peg-lid was then transferred to a 96-well challenge microtiter plate, each well containing 200 µl of a twofold serial dilution of each peptide in LB medium. The challenge plate was incubated at 37°C for 2 hours. Peptide activity on pre-formed biofilm was evaluated by two independent methods: (i) visual observation of bacterial growth and (ii) counting of living bacterial cells after peptide treatment. In the first case, the peg-lid was removed from the challenge plate, rinsed with PBS and used to cover a 96-well recovery microtiter plate, each well containing 200 µl LB medium. […] Colony forming units (CFU) were expressed as percentage with respect to control (peptide-untreated biofilms). […]

Test [3] has as its system P. aeruginosa ATCC 27853 biofilm. It is filed as cell-based, Pseudomonas aeruginosa. The settings on record: ATCC 27853, 20 h. How it is done: (§2) Biofilm formation was performed by adapting the procedure described in [39] using the Calgary Biofilm Device (Innovotech, Innovotech Inc. Edmonton, Canada). Briefly, 96-well plates containing the bacterial inoculum were sealed with lids bearing 96 pegs on which the biofilm could build up. The plates were placed in an orbital incubator at 35°C (for P. aeruginosa and E. coli) or 37°C (for S. aureus) for 20 h under agitation at 125 rpm. Once biofilms formed, the lids were removed from the plates and the pegs were rinsed twice with phosphate buffered saline (PBS) to remove planktonic cells. The peg-lid was then transferred to a 96-well challenge microtiter plate, each well containing 200 µl of a twofold serial dilution of each peptide in LB medium. The challenge plate was incubated at 37°C for 2 hours. Peptide activity on pre-formed biofilm was evaluated by two independent methods: (i) visual observation of bacterial growth and (ii) counting of living bacterial cells after peptide treatment. In the first case, the peg-lid was removed from the challenge plate, rinsed with PBS and used to cover a 96-well recovery microtiter plate, each well containing 200 µl LB medium. The recovery plate was sealed, incubated at 37°C for 4 hours and then observed for any visible growth of bacteria detached from the peptide-treated biofilm. […]

Test [4] deals with E. coli ATCC 25922 biofilm. It is filed as cell-based, Escherichia coli. The following applies: ATCC 25922, 2 h. As for the experimental part: as §1
Test [5] relates to E. coli ATCC 25922 biofilm. It is filed as cell-based, Escherichia coli. The settings on record: ATCC 25922, 20 h. How it is done:
as §2

In test [6] the test system is Enterobacteriaceae. Nature of the test: MIC comparison M33-D vs M33-L, Enterobacteriaceae. It is filed as cell-based. As for the experimental part:
MICs were determined using a standard microdilution assay as recommended by the Clinical and Laboratory Standards Institute. Assays were performed in triplicate using cation-supplemented Mueller-Hinton (MH) broth (Becton Dickinson, Franklin Lakes, NJ, USA) and a bacterial inoculum of 5x10^4 CFU/well, in a final volume of 100 µl. The tested concentrations ranged from 0.1 µM to 24 µM for both peptides. Results were recorded after 18–20 h of incubation at 37°C.

Take `CC[C@H](C)[C@H](NC(=O)[C@H](CCCCN)NC(=O)[C@@H](N)CCCCN)C(=O)N[C@@H](CCCNC(=N)N)C(=O)N[C@H](C(=O)N[C@@H](CCCNC(=N)N)C(=O)N[C@@H](CC(C)C)C(=O)N[C@@H](CO)C(=O)N[C@@H](C)C(=O)NCCCC[C@H](NC(=O)[C@H](C)NC(=O)[C@H](CO)NC(=O)[C@H](CC(C)C)NC(=O)[C@H](CCCNC(=N)N)NC(=O)[C@@H](NC(=O)[C@H](CCCNC(=N)N)NC(=O)[C@@H](NC(=O)[C@H](CCCCN)NC(=O)[C@@H](N)CCCCN)[C@@H](C)CC)C(C)C)C(=O)NCCCC[C@H](NC(=O)[C@H](CCCCNC(=O)[C@H](C)NC(=O)[C@H](CO)NC(=O)[C@H](CC(C)C)NC(=O)[C@H](CCCNC(=N)N)NC(=O)[C@@H](NC(=O)[C@H](CCCNC(=N)N)NC(=O)[C@@H](NC(=O)[C@H](CCCCN)NC(=O)[C@@H](N)CCCCN)[C@@H](C)CC)C(C)C)NC(=O)[C@H](C)NC(=O)[C@H](CO)NC(=O)[C@H](CC(C)C)NC(=O)[C@H](CCCNC(=N)N)NC(=O)[C@@H](NC(=O)[C@H](CCCNC(=N)N)NC(=O)[C@@H](NC(=O)[C@H](CCCCN)NC(=O)[C@@H](N)CCCCN)[C@@H](C)CC)C(C)C)C(=O)NCCC(=O)O)C(C)C` [M33-L] (I: H-KKIRVRLSAKK[βAla]-OH / II: H-KKIRVRLSAK / III: H-KKIRVRLSA / IV: H-KKIRVRLSA; amide I:10-IV:C, I:11-II:C, II:10-III:C; N-terminus assumed): the “mortality (in words)” value in test [1] is on record as “mortality overlapping that of controls”. This molecule gave a survival in test [1] of 0%. In addition, the “Minimum bactericidal concentration on biofilm (MBCb)” value came out at 12 µM (≈ 56.2 µg/mL) in test [2] and 6 µM (≈ 28.1 µg/mL) in test [4]. Also, the “Minimum biofilm eradication concentration (MBEC)” value in test [3] was found to be 1.5 µM; in test [5] it was 3 µM.

In the case of `CC[C@@H](C)[C@@H](NC(=O)[C@@H](CCCCN)NC(=O)[C@H](N)CCCCN)C(=O)N[C@H](CCCNC(=N)N)C(=O)N[C@@H](C(=O)N[C@H](CCCNC(=N)N)C(=O)N[C@H](CC(C)C)C(=O)N[C@H](CO)C(=O)N[C@H](C)C(=O)NCCCC[C@H](NC(=O)[C@@H](C)NC(=O)[C@@H](CO)NC(=O)[C@@H](CC(C)C)NC(=O)[C@@H](CCCNC(=N)N)NC(=O)[C@H](NC(=O)[C@@H](CCCNC(=N)N)NC(=O)[C@H](NC(=O)[C@@H](CCCCN)NC(=O)[C@H](N)CCCCN)[C@H](C)CC)C(C)C)C(=O)NCCCC[C@H](NC(=O)[C@H](CCCCNC(=O)[C@@H](C)NC(=O)[C@@H](CO)NC(=O)[C@@H](CC(C)C)NC(=O)[C@@H](CCCNC(=N)N)NC(=O)[C@H](NC(=O)[C@@H](CCCNC(=N)N)NC(=O)[C@H](NC(=O)[C@@H](CCCCN)NC(=O)[C@H](N)CCCCN)[C@H](C)CC)C(C)C)NC(=O)[C@@H](C)NC(=O)[C@@H](CO)NC(=O)[C@@H](CC(C)C)NC(=O)[C@@H](CCCNC(=N)N)NC(=O)[C@H](NC(=O)[C@@H](CCCNC(=N)N)NC(=O)[C@H](NC(=O)[C@@H](CCCCN)NC(=O)[C@H](N)CCCCN)[C@H](C)CC)C(C)C)C(=O)NCCC(=O)O)C(C)C` [M33-D] (I: H-[dK][dK][dI][dR][dV][dR][dL][dS][dA]KK[βAla]-OH / II: H-[dK][dK][dI][dR][dV][dR][dL][dS][dA]K / III: H-[dK][dK][dI][dR][dV][dR][dL][dS][dA] / IV: H-[dK][dK][dI][dR][dV][dR][dL][dS][dA]; amide I:10-IV:C, I:11-II:C, II:10-III:C; N-terminus assumed), the survival in test [1] is reported as 100%. Further, the “Minimum bactericidal concentration on biofilm (MBCb)” value in test [2] turned out to be 1.5 µM (≈ 7.02 µg/mL); in test [4], 6 µM (≈ 28.1 µg/mL). For the same molecule, the “Minimum biofilm eradication concentration (MBEC)” value in test [3] and in test [5] was 3 µM throughout. Moreover, the “fold lower activity (MIC) than M33-L” value in test [6] is reported as 2–4 fold.
